One assay has as its system MCF-7. Kind of assay: MTT cell viability assay, MCF-7 cells. It is filed as cell-based. The following applies: Homo sapiens, MCF7, 48 h treatment, ± SD, two experiments, 8 replicates.
The subject of another assay is HeLa. Kind of assay: MTT cell viability assay, HeLa cells. It is filed as cell-based. The following applies: Homo sapiens, 48 h treatment, ± SD, two experiments, 8 replicates. Background: Tetrazolium dyes change colour on reduction, which living cells bring about.
The next assay has as its system Jurkat cells. Kind of assay: Flow cytometric annexin-V/propidium iodide apoptosis assay. It is filed as cell-based, human. To be noted: 5 μM, 36 h. The procedure:
Since many clinically used anticancer agents induce apoptosis in cancer cells, we tested the pyranopyridone analogues for their ability to induce apoptosis in Jurkat (model for human T-cell leukemia) cells using the flow cytometric annexin-V/propidium iodide assay (FIG. 1).
FIG. 1 illustrates induction of apoptosis in Jurkat cells treated for 36 h with DMSO control, colchicine (5 μM) and selected pyridone library analogues (5 μM) in the flow cytometric annexin-V/propidium iodide assay. Error bars represent data
In general terms: A flow cytometer gives signals particle by particle.

A further assay relates to tubulin. Kind of assay: In vitro tubulin polymerization (fluorescence). It is filed as biochemical. The following applies: 25 μM; relative to 0.05% DMSO control. The text has this: To obtain further support for the proposed antitubulin mechanism of action for our heterocycles, we assessed the effect of pyranoquinolones on in vitro tubulin polymerization. In this assay microtubule formation is monitored by the increase in fluorescence intensity of the reaction mixture.
FIG. 4 illustrates the effect of our compounds on in vitro tubulin polymerization.

Bounds are passed on as bounds.

Take `Cn1c(=O)c2c(c3ccccc31)OC(N)=C(C#N)C2c1cncc(Br)c1` (centres unmarked) [Compound 3, 2-Amino-4-(5-bromo-3-pyridinyl)-6-methyl-5-oxo-5,6-dihydro-4H-pyrano[3,2-c]quinoline-3-carbonitrile]: the 50% growth inhibitory concentration (GI50) – broadly, the concentration giving 50% growth inhibition – amounted to 15 ± 8 nM with MCF-7 and 13 ± 3 nM with HeLa.

In the case of `COc1cc(C2C(C#N)=C(N)Oc3c2c(=O)n(C)c2ccccc32)cc(Br)c1OC(C)=O` (centres unmarked) [Compound 4, 4-(2-Amino-3-cyano-6-methyl-5-oxo-5,6-dihydro-4H-pyrano[3,2-c]quinolin-4-yl)-2-bromo-6-methoxyphenyl acetate], the GI50 with MCF-7 is 25 ± 60 nM; in the assay with HeLa, 180 ± 20 nM.

In the assay with HeLa, `Cc1cc2c(c(=O)n1C)C(c1ccc(N(C)C)c(Br)c1)C(C#N)=C(N)O2` (centres unmarked) [Compound 8, 2-Amino-4-[3-bromo-4-(dimethylamino)phenyl]-6,7-dimethyl-5-oxo-5,6-dihydro-4H-pyrano[3,2-c]pyridine-3-carbonitrile] had a GI50 of 330 ± 60 nM.

On to `COc1cc(C2C(C#N)=C(N)Oc3cc(C)n(C)c(=O)c32)cc(Br)c1OC` (centres unmarked) [Compound 9, 2-Amino-4-(3-bromo-4,5-dimethoxyphenyl)-6,7-dimethyl-5-oxo-5,6-dihydro-4H-pyrano[3,2-c]pyridine-3-carbonitrile], for which the concentration for 50% growth inhibition (GI50) in the assay on HeLa came to 580 ± 140 nM.

For `CCOc1c(Br)cc(C2C(C#N)=C(N)Oc3cc(C)n(C)c(=O)c32)cc1OC` (centres unmarked) [Compound 10, 2-Amino-4-(3-bromo-4-ethoxy-5-methoxyphenyl)-6,7-dimethyl-5-oxo-5,6-dihydro-4H-pyrano[3,2-c]pyridine-3-carbonitrile], the concentration for 50% growth inhibition (GI50) in the assay on HeLa stood at 1100 ± 800 nM.

As for `COc1cc(C2C(C#N)=C(N)Oc3cc(C)n(C)c(=O)c32)cc(Br)c1O` (centres unmarked) [Compound 11, 2-Amino-4-(3-bromo-4-hydroxy-5-methoxyphenyl)-6,7-dimethyl-5-oxo-5,6-dihydro-4H-pyrano[3,2-c]pyridine-3-carbonitrile], the concentration for 50% growth inhibition (GI50) in the assay on HeLa stood at 2700 ± 1100 nM.

Take `COc1cc(C2C(C#N)=C(N)Oc3cc(C)n(C)c(=O)c32)cc(Br)c1OC(C)=O` (centres unmarked) [Compound 12, 4-(2-Amino-3-cyano-6,7-dimethyl-5-oxo-5,6-dihydro-4H-pyrano[3,2-c]pyridin-4-yl)-2-bromo-6-methoxyphenyl acetate]: in the assay with HeLa, growth was halved (GI50) at 3500 ± 1300 nM.

Compound `Cc1cc2c(c(=O)n1C)C(c1ccc(F)c(Br)c1)C(C#N)=C(N)O2` (centres unmarked) [Compound 13, 2-Amino-4-(3-bromo-4-fluorophenyl)-6,7-dimethyl-5-oxo-5,6-dihydro-4H-pyrano[3,2-c]pyridine-3-carbonitrile] yielded a GI50 in the assay with HeLa of 6400 ± 1100 nM.

`Cc1cc2c(c(=O)n1C)C(c1cccc(Br)c1)C(C#N)=C(N)O2` (centres unmarked) [Compound 14, 2-Amino-4-(3-bromophenyl)-6,7-dimethyl-5-oxo-5,6-dihydro-4H-pyrano[3,2-c]pyridine-3-carbonitrile] displayed a 50% growth inhibitory concentration (GI50) in the assay with HeLa of 6500 ± 1300 nM.

Regarding `Cc1cc2c(c(=O)n1C)C(c1ccc(Cl)c(Cl)c1)C(C#N)=C(N)O2` (centres unmarked) [Compound 15, 2-Amino-4-(3,4-dichlorophenyl)-6,7-dimethyl-5-oxo-5,6-dihydro-4H-pyrano[3,2-c]pyridine-3-carbonitrile], the “induction of apoptosis in Jurkat cells” value with Jurkat cells was “do not induce apoptosis”. In the assay with HeLa, the GI50 is 18300 ± 2900 nM.

In the case of `Cc1cc2c(c(=O)n1C)C(c1ccc(C(C)C)cc1)C(C#N)=C(N)O2` (centres unmarked) [Compound 17, 2-Amino-4-(4-isopropylphenyl)-6,7-dimethyl-5-oxo-5,6-dihydro-4H-pyrano[3,2-c]pyridine-3-carbonitrile], in the assay with Jurkat cells, the “induction of apoptosis in Jurkat cells” value is “do not induce apoptosis”. This compound also showed a GI50 with HeLa greater than 100000 nM.

For `COc1ccc(CCn2c(C)cc3c(c2=O)C(c2cc(OC)c(OC)c(OC)c2)C(C#N)=C(N)O3)cc1OC` (centres unmarked) [Compound 20, 2-Amino-6-(3,4-dimethoxyphenethyl)-7-methyl-5-oxo-4-(3,4,5-trimethoxyphenyl)-5,6-dihydro-4H-pyrano[3,2-c]pyridine-3-carbonitrile], in the assay on Jurkat cells, the “induction of apoptosis in Jurkat cells” value is “do not induce apoptosis”. The GI50 in the assay on HeLa was determined as 22700 ± 6400 nM.

With `COc1cc(C2C(C#N)=C(N)Oc3c2c(=O)n(C)c2ccccc32)cc(OC)c1OC` (centres unmarked) [Compound 22, 2-Amino-6-methyl-5-oxo-4-(3,4,5-trimethoxyphenyl)-5,6-dihydro-4H-pyrano[3,2-c]quinoline-3-carbonitrile], the 50% growth inhibitory concentration (GI50) with MCF-7 was determined as 1000 ± 300 nM; in the assay on HeLa, 240 ± 20 nM.

For `COc1cc(C2C(C#N)=C(N)Oc3c2c(=O)n(C)c2ccccc32)cc([N+](=O)[O-])c1O` (centres unmarked) [Compound 25, 2-Amino-4-(4-hydroxy-3-methoxy-5-nitrophenyl)-6-methyl-5-oxo-5,6-dihydro-4H-pyrano[3,2-c]quinoline-3-carbonitrile], the 50% growth inhibitory concentration (GI50) in the assay on MCF-7 turned out to be 710 ± 120 nM; in the assay with HeLa, 630 ± 20 nM.

`Cn1c(=O)c2c(c3ccccc31)OC(N)=C(C#N)C2c1cccc(Br)c1` (centres unmarked) [Compound 37, 2-Amino-4-(3-bromophenyl)-6-methyl-5-oxo-5,6-dihydro-4H-pyrano[3,2-c]quinoline-3-carbonitrile]: the concentration for 50% growth inhibition (GI50) with MCF-7 came out at 3 ± 1 nM; in the assay with HeLa it was 740 ± 30 nM.

With `Cn1c(=O)c2c(c3ccccc31)OC(N)=C(C#N)C2c1ccc(F)c(Br)c1` (centres unmarked) [Compound 38, 2-Amino-4-(3-bromo-4-fluorophenyl)-6-methyl-5-oxo-5,6-dihydro-4H-pyrano[3,2-c]quinoline-3-carbonitrile], the GI50 with MCF-7 turned out to be 810 ± 80 nM; in the assay on HeLa, 270 ± 30 nM.

With `Cn1c(=O)c2c(c3ccccc31)OC(N)=C(C#N)C2c1cc(Br)c(O)c(Br)c1` (centres unmarked) [Compound 39, 2-Amino-4-(3,5-dibromo-4-hydroxyphenyl)-6-methyl-5-oxo-5,6-dihydro-4H-pyrano[3,2-c]quinoline-3-carbonitrile], the GI50 in the assay on MCF-7 is 430 ± 10 nM; with HeLa it was 270 ± 20 nM.

With `Cn1c(=O)c2c(c3ccccc31)OC(N)=C(C#N)C2c1cc(Br)cc(Br)c1` (centres unmarked) [Compound 42, 2-Amino-4-(3,5-dibromophenyl)-6-methyl-5-oxo-5,6-dihydro-4H-pyrano[3,2-c]quinoline-3-carbonitrile], the results for the GI50 in the assay on MCF-7 and in the assay with HeLa were 75 ± 7 nM and 77 ± 6 nM, respectively.

For `COc1ccc(C2C(C#N)=C(N)Oc3c2c(=O)n(C)c2ccccc32)cc1Br` (centres unmarked) [Compound 43, 2-Amino-4-(3-bromo-4-methoxyphenyl)-6-methyl-5-oxo-5,6-dihydro-4H-pyrano[3,2-c]quinoline-3-carbonitrile], the GI50 amounted to 500 ± 100 nM in the assay with MCF-7 and 410 ± 40 nM in the assay on HeLa.

Take `COc1cc([C@@H]2c3cc4c(cc3[C@H](O)[C@H]3COC(=O)[C@H]23)OCO4)cc(OC)c1OC` [podophyllotoxin, reference compound]: in the assay on tubulin, the “effect on in vitro tubulin polymerization” value is on record as “completely suppress tubulin polymerization”.

The values above are taken from patent US8349864B2, “Pyrano [3,2-C] pyridones and related heterocyclic compounds as pharmaceutical agents for treating disorders responsive to apoptosis, antiproliferation or vascular disruption, and the use thereof” (New Mexico Technical Research Foundation, priority 2009, dated 2013).
